Results taken from patent US20260285850A1, “SUBSTITUTED OXAZOLIDINONES AND IMIDAZOLINONES AS HERBICIDES” (FMC CORPORATION, priority 2023, published 2026).

Key:
Assay type in all cases: in vivo
[1] = system: barnyardgrass (Echinochloa crus-galli); assay: Test A preemergence soil spray, visual injury rating 0-100; conditions: 0 to 100 scale, 10 days
Procedure, shortened: (§1)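 Scale 0–100 (no effect to complete control), visual, versus untreated controls, read 10 days after application. Application: preemergence directed spray onto seeded loam–sand soil, or postemergence to young plants; formulation in non-phytotoxic solvent with surfactant.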

[2] = system: blackgrass (Alopecurus myosuroides); assay: as above; conditions: 0 to 100 scale, 10 days
Procedure, shortened: as §1

[3] = system: corn (Zea mays); assay: as above; conditions: 0 to 100 scale, 10 days
Procedure, shortened: as §1

[4] = system: green foxtail (Setaria viridis); assay: as above; conditions: 0 to 100 scale, 10 days
Procedure, shortened: as §1

[5] = system: kochia (Bassia scoparia); assay: as above; conditions: 0 to 100 scale, 10 days
Procedure, shortened: as §1

[6] = system: oat, wild (wild oat, Avena fatua); assay: as above; conditions: 0 to 100 scale, 10 days
Procedure, shortened: as §1

[7] = system: palmer (palmer amaranth, palmer pigweed, Amaranthus palmeri); assay: as above; conditions: 0 to 100 scale, 10 days
Procedure, shortened: as §1

[8] = system: ragweed (common ragweed, Ambrosia artemisiifolia); assay: as above; conditions: 0 to 100 scale, 10 days
Procedure, shortened: as §1

[9] = system: ryegrass, Italian (italian ryegrass, Lolium multiflorum); assay: as above; conditions: 0 to 100 scale, 10 days
Procedure, shortened: as §1

[10] = system: soybean (Glycine max); assay: as above; conditions: 0 to 100 scale, 10 days
Procedure, shortened: as §1

[11] = system: wheat (Triticum aestivum); assay: as above; conditions: 0 to 100 scale, 10 days
Procedure, shortened: as §1

[12] = system: barnyardgrass (Echinochloa crus-galli); assay: Test A postemergence application, visual injury rating 0-100; conditions: Postemergence
Procedure, shortened: as §1

[13] = system: blackgrass (Alopecurus myosuroides); assay: as above; conditions: Postemergence
Procedure, shortened: as §1

[14] = system: corn (Zea mays); assay: as above; conditions: Postemergence
Procedure, shortened: as §1

[15] = system: galium (catchweed bedstraw, Galium aparine); assay: as above; conditions: Postemergence
Procedure, shortened: as §1

[16] = system: green foxtail (Setaria viridis); assay: as above; conditions: Postemergence
Procedure, shortened: as §1

[17] = system: horseweed (Erigeron canadensis); assay: as above; conditions: Postemergence
Procedure, shortened: as §1

[18] = system: kochia (Bassia scoparia); assay: as above; conditions: Postemergence
Procedure, shortened: as §1

[19] = system: oat, wild (wild oat, Avena fatua); assay: as above; conditions: Postemergence
Procedure, shortened: as §1

[20] = system: palmer (palmer amaranth, palmer pigweed, Amaranthus palmeri); assay: as above; conditions: Postemergence
Procedure, shortened: as §1

[21] = system: ragweed (common ragweed, Ambrosia artemisiifolia); assay: as above; conditions: Postemergence
Procedure, shortened: as §1

[22] = system: ryegrass, Italian (italian ryegrass, Lolium multiflorum); assay: as above; conditions: Postemergence
Procedure, shortened: as §1

[23] = system: soybean (Glycine max); assay: as above; conditions: Postemergence
Procedure, shortened: as §1

[24] = system: wheat (Triticum aestivum); assay: as above; conditions: Postemergence
Procedure, shortened: as §1

[25] = system: barnyardgrass (Echinochloa crusgalli); assay: Test B flooded paddy test, visual plant response rating 0-100; conditions: 250 g ai/ha, Flood, applied to paddy water, evaluated after 13 days
Procedure, shortened: (§2)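 Paddy-water application: test compounds went directly into water flooded 3 cm above the soil surface, with plants at 2 leaves. After a 13-day greenhouse period, responses were judged by eye relative to controls; a dash marks an untested entry.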

[26] = system: ducksalad (Heteranthera limosa); assay: as above; conditions: 250 g ai/ha, Flood, applied to paddy water, evaluated after 13 days
Procedure, shortened: as §2

[27] = system: rice (Oryza sativa); assay: as above; conditions: 250 g ai/ha, Flood, applied to paddy water, evaluated after 13 days
Procedure, shortened: as §2

[28] = system: sedge, umbrella (small-flower umbrella sedge, Cyperus difformis); assay: as above; conditions: 250 g ai/ha, Flood, applied to paddy water, evaluated after 13 days
Procedure, shortened: as §2

[29] = 8 g ai/ha, 10 days, 0 is no effect, 100 is complete control
[30] = 31 g ai/ha, greenhouse 10 days, 0 no effect, 100 complete control

With `CC1(C(=O)NC2C=CC(C(=O)NS(=O)(=O)c3ccccc3)C2)CN(c2cc(F)cc(F)c2)C(=O)O1` (stereo not shown) [Compound 88] the “Barnyardgrass plant response rating” value ([1]; 8 g ai/ha) was 10, the “Barnyardgrass plant response rating” value ([1]; 31 g ai/ha) was 40 and the “Blackgrass plant response rating” value ([2]; 8 g ai/ha) was 0. The “Blackgrass plant response rating” value ([2]; 31 g ai/ha) was 30, the “Corn plant response rating” value ([3]; 8 g ai/ha) was 0 and the “Corn plant response rating” value ([3]; 31 g ai/ha) was 0. The “Foxtail, Green plant response rating” value ([4]; 8 g ai/ha) was 20, the “Foxtail, Green plant response rating” value ([4]; 31 g ai/ha) was 30 and the “Kochia plant response rating” value ([5]; 8 g ai/ha) was 0. For the same compound, the “Kochia plant response rating” value ([5]; 31 g ai/ha) was 60, the “Oat, Wild plant response rating” value ([6]; 8 g ai/ha) was 0 and the “Oat, Wild plant response rating” value ([6]; 31 g ai/ha) was 0. For the same compound, the “Pigweed, Palmer plant response rating” value ([7]; 8 g ai/ha) was 50, the “Amaranth, Palmer (Pigweed, Palmer) plant response rating” value ([7]; 31 g ai/ha) was 80 and the “Ragweed plant response rating” value ([8]; 8 g ai/ha) was 0. For the same compound, the “Ragweed plant response rating” value ([8]; 31 g ai/ha) was 40, the “Ryegrass, Italian plant response rating” value ([9]; 8 g ai/ha) was 10 and the “Ryegrass, Italian plant response rating” value ([9]; 31 g ai/ha) was 50. For the same compound, the “Soybean plant response rating” value ([10]; 8 g ai/ha) was 0, the “Soybean plant response rating” value ([10]; 31 g ai/ha) was 0 and the “Wheat plant response rating” value ([11]; 8 g ai/ha) was 0. For the same compound, the “Wheat plant response rating” value ([11]; 31 g ai/ha) was 10, the “Barnyardgrass plant response rating (0 to 100 scale)” value [12, 29] was 10 and the “Barnyardgrass plant response rating (0 to 100 scale)” value [12, 30] was 100. The “Blackgrass plant response rating (0 to 100 scale)” value [13, 29] was 0, the “Blackgrass plant response rating (0 to 100 scale)” value [13, 30] was 50 and the “Corn plant response rating (0 to 100 scale)” value [14, 29] was 40. The “Corn plant response rating (0 to 100 scale)” value [14, 30] was 90, the “Galium plant response rating (0 to 100 scale)” value [15, 29] was 30 and the “Galium plant response rating (0 to 100 scale)” value [15, 30] was 70. For the same compound, the “Foxtail, Green plant response rating (0 to 100 scale)” value [16, 29] was 0, the “Foxtail, Green plant response rating (0 to 100 scale)” value [16, 30] was 50 and the “Horseweed plant response rating (0 to 100 scale)” value [17, 29] was 0. For the same compound, the “Horseweed plant response rating (0 to 100 scale)” value [17, 30] was 50, the “Kochia plant response rating (0 to 100 scale)” value [18, 29] was 30 and the “Kochia plant response rating (0 to 100 scale)” value [18, 30] was 80. For the same compound, the “Oat, Wild plant response rating (0 to 100 scale)” value [19, 29] was 20, the “Oat, Wild plant response rating (0 to 100 scale)” value [19, 30] was 90 and the “Pigweed, Palmer plant response rating (0 to 100 scale)” value [20, 29] was 40. For the same compound, the “Amaranth, Palmer / Pigweed, Palmer plant response rating (0 to 100 scale)” value [20, 30] was 90, the “Ragweed plant response rating (0 to 100 scale)” value [21, 29] was 50 and the “Ragweed plant response rating (0 to 100 scale)” value [21, 30] was 60. The “Ryegrass, Italian plant response rating (0 to 100 scale)” value [22, 29] was 0, the “Ryegrass, Italian plant response rating (0 to 100 scale)” value [22, 30] was 50 and the “Soybean plant response rating (0 to 100 scale)” value [23, 29] was 0. For the same compound, the “Soybean plant response rating (0 to 100 scale)” value [23, 30] was 50, the “Wheat plant response rating (0 to 100 scale)” value [24, 29] was 20 and the “Wheat plant response rating (0 to 100 scale)” value [24, 30] was 40. For the same compound, the “Plant response rating, Barnyardgrass (0 to 100 scale, 0 is no effect and 100 is complete control)” value [25] was 15, the “Plant response rating, Ducksalad (0 to 100 scale, 0 is no effect and 100 is complete control)” value [26] was 70 and the “Plant response rating, Rice (0 to 100 scale, 0 is no effect and 100 is complete control)” value [27] was 25. The “Plant response rating, Sedge, Umbrella (0 to 100 scale, 0 is no effect and 100 is complete control)” value [28] was 80.
